Reference: patent US12649751B2 (Arcus Biosciences, Inc., priority 2022, dated 2026)
Read-outs that look alike come from different tables or passages of the source.

Tests used:
HPK1 = HPK1 (Homo sapiens, UniProt Q92918); test: HPK1 Biochemical Assay (ADP-Glo luminescence; low ATP 10 μM or high ATP 200 μM)
[1] = test system: p-SLP-76 (Ser376) in Jurkat cells; test: pSLP76 Cellular Assay (AlphaLISA SureFire Ultra p-SLP-76 (Ser376), anti-CD3 activated Jurkat cells); assay type: cell-based; conditions: Homo sapiens, read-out: Cellular Potency
How it was run: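 Jurkat cells, serum-starved overnight in Opti-MEM then in HBSS, preincubated 1 h at 37 °C with 22-point 2-fold compound dilutions, then stimulated with anti-CD3 (0.025 mg/ml added solution) for 45 min. Lysate p-SLP-76 (Ser376) measured by AlphaLISA at 570 nm; IC50 from 4-parameter logistic fit.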

[2] = 2 nM HPK1, 10 μM ATP, read-out: Biochemical Potency (low ATP)
[3] = Jurkat cells, anti-CD3 stimulation, pSLP76
[4] = HPK1 ADP-Glo assay, high ATP (200 μM ATP, 5 nM HPK1), read-out: Biochemical Potency (high ATP)
[5] = pSLP76 (Ser376) AlphaLISA, anti-CD3 activated Jurkat cells
[6] = HPK1 ADP-Glo assay, low ATP (10 μM ATP, 2 nM HPK1), read-out: Biochemical Potency (low ATP)

Sequence of HPK1 (Q92918 whole entry, species assumed): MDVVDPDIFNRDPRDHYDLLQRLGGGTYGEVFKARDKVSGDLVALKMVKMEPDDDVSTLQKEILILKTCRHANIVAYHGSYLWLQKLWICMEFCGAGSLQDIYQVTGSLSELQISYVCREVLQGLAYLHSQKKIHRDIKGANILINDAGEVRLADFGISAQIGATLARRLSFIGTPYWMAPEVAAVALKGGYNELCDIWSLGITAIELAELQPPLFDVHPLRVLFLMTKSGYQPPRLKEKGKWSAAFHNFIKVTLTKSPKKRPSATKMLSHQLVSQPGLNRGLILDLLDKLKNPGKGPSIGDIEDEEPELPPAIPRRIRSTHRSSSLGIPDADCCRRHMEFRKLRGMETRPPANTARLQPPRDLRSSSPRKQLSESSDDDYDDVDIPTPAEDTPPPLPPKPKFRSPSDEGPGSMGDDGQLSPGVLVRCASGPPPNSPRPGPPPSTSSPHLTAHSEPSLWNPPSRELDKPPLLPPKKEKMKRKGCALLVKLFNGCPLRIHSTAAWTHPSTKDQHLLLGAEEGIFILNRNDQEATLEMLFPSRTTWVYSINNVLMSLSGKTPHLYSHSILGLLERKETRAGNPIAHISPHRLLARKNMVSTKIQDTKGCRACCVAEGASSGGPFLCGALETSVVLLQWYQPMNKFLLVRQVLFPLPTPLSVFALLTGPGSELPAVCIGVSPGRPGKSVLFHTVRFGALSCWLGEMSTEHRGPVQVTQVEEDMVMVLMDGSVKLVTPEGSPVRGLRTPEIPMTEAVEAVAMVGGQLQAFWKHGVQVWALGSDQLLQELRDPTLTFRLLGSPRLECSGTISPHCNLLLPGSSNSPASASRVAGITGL

SMILES	IC50 (HPK1; [2])	IC50 [1, 3]	IC50 (HPK1; [4])	IC50 [1, 5]	IC50 (HPK1; [6])
Cc1cccnc1-c1nc2cc(Nc3ccc(N4CCOCC4)c(CN4CCCC4)n3)ncc2s1 [Example 63, N-[2-(3-Methylpyridin-2-yl)-[1,3]thiazolo[5,4-c]pyridin-6-yl]-5-(morpholin-4-yl)-6-[(pyrrolidin-1-yl)methyl]pyridin-2-amine]	< 100 nM	100 to 1000 nM	–	–	–
Cc1cccnc1-c1nc2cc(Nc3cc(F)cc(N4C[C@@H]5C[C@H]4CN5C)n3)ncc2s1 [Example 119, 4-Fluoro-6-[(1S,4S)-5-methyl-2,5-diazabicyclo[2.2.1]heptan-2-yl]-N-[2-(3-methylpyridin-2-yl)-[1,3]thiazolo[5,4-c]pyridin-6-yl]pyridin-2-amine]	< 100 nM	100 to 1000 nM	–	–	–
CN(C)Cc1ccc(N2CCOCC2)c(Nc2cc3nc(-c4c(F)cccc4F)sc3cn2)n1 [Example 276, N-[2-(2,6-Difluorophenyl)-[1,3]thiazolo[5,4-c]pyridin-6-yl]-6-[(dimethylamino)methyl]-3-(morpholin-4-yl)pyridin-2-amine]	> 5000 nM	> 5000 nM	–	–	–
Cc1cc(Nc2cc3nc(-c4cccc5c4CCCN5S(C)(=O)=O)sc3cn2)nc(N2C[C@@H]3C[C@H]2CN3C)n1 [Example 312, N-[2-(1-methanesulfonyl-1,2,3,4-tetrahydroquinolin-5-yl)-[1,3]thiazolo[5,4-c]pyridin-6-yl]-6-methyl-2-[(1S,4S)-5-methyl-2,5-diazabicyclo[2.2.1]heptan-2-yl]pyrimidin-4-amine]	–	–	100 to 1000 nM	1000 to 5000 nM	–
Cc1cccnc1-c1nc2cc(Nc3cnc(C4CCOCC4)c(N4C[C@@H]5C[C@H]4CN5)n3)ncc2s1 [Example 510]	–	–	< 100 nM	< 100 nM	< 100 nM
Cc1cc(Nc2cc3nc(-c4ccnc(N5CCCOCC5)c4)sc3cn2)nc(N2C[C@@H]3C[C@H]2CN3CCO)n1 [Example 449]	–	–	< 100 nM	100 to 1000 nM	–
CC(=O)Nc1cccc(-c2nc3cc(Nc4cc(C)nc(N5C[C@@H]6C[C@H]5CN6C)n4)ncc3s2)c1 [Example 423]	–	–	< 100 nM	100 to 1000 nM	–
Cc1cc(Nc2cc3nc(-c4cccc(C(=O)N5C[C@H]6C[C@@H]5CO6)c4)sc3cn2)nc(N2C[C@@H]3C[C@H]2CN3CCO)n1 [Example 563]	–	–	< 100 nM	100 to 1000 nM	–
COc1cccc(F)c1-c1nc2cc(Nc3ccc(N4CCOCC4)c(CN(C)C)n3)ncc2s1 [Example 26, 6-[(Dimethylamino)methyl]-N-[2-(2-fluoro-6-methoxyphenyl)-[1,3]thiazolo[5,4-c]pyridin-6-yl]-5-(morpholin-4-yl)pyridin-2-amine]	< 100 nM	100 to 1000 nM	–	–	–
Cc1cc(Nc2cc3nc(-c4ccnc(N5C[C@H]6COC[C@H]6C5)c4)sc3cn2)nc(N2C[C@@H]3C[C@H]2CN3CCO)n1 [Example 452]	–	–	< 100 nM	100 to 1000 nM	–
Cc1cc(Nc2cc3nc(-c4cnn(C)c4C#N)sc3cn2)nc(N2C[C@@H]3C[C@H]2CN3C)n1 [Example 366]	–	–	< 100 nM	100 to 1000 nM	–
Cc1cc(Nc2cc3nc(-c4cncc(N5CCOC[C@H]5C)c4)sc3cn2)nc(N2C[C@@H]3C[C@H]2CN3CCO)n1 [Example 476]	–	–	< 100 nM	< 100 nM	–
CCN1C[C@@H]2C[C@H]1CN2c1nc(C)cc(Nc2cc3nc(-c4cccc(C(=O)N5CCC(C)CC5)c4)sc3cn2)n1 [Example 517]	–	–	< 100 nM	< 100 nM	–
CCN1C[C@@H]2C[C@H]1CN2c1nc(C)cc(Nc2cc3nc(-c4cccc(C(=O)N5CCC[C@H](C)C5)c4)sc3cn2)n1 [Example 512]	–	–	< 100 nM	< 100 nM	–
Cc1cccnc1-c1nc2cc(Nc3cc(F)cc(N4C[C@@H]5C[C@H]4CN5)n3)ncc2s1 [Example 334]	–	–	–	< 100 nM	< 100 nM
Cc1ccc(Nc2cc3nc(-c4ccnn4C)sc3cn2)nc1O[C@H]1CCNC1 [Example 182, 5-Methyl-N-[2-(1-methyl-1H-pyrazol-5-yl)-[1,3]thiazolo[5,4-c]pyridin-6-yl]-6-[(3S)-pyrrolidin-3-yloxy]pyridin-2-amine]	< 100 nM	100 to 1000 nM	–	–	–
Cc1cc(Nc2cc3nc(-c4cccc(S(=O)(=O)N5CCCC5)c4)sc3cn2)nc(N2C[C@@H]3C[C@H]2CN3CCO)n1 [Example 344]	–	–	< 100 nM	< 100 nM	–
Cc1cccc(C)c1-c1nc2cc(Nc3ccc(N4CCOCC4)c(CN(C)C)n3)ncc2s1 [Example 13, 6-[(Dimethylamino)methyl]-N-[2-(2,6-dimethylphenyl)-[1,3]thiazolo[5,4-c]pyridin-6-yl]-5-(morpholin-4-yl)pyridin-2-amine]	< 100 nM	100 to 1000 nM	–	–	–
Cc1cc(Nc2cc3nc(-c4cnn5c4COCC5)sc3cn2)nc(N2C[C@@H]3C[C@H]2CN3C)n1 [Example 385]	–	–	< 100 nM	100 to 1000 nM	–

SMILES	IC50 (HPK1; [2])	IC50 [1, 3]	IC50 (HPK1; [4])	IC50 [1, 5]	IC50 (HPK1; [6])
Cc1cc(Nc2cc3nc(-n4cc(F)cn4)sc3cn2)nc(N2C[C@@H]3C[C@H]2CN3C)n1 [Example 429]	–	–	< 100 nM	100 to 1000 nM	–
NC1(c2nc(Nc3cc4nc(-c5c(F)cccc5F)sc4cn3)ccc2N2CCC(F)(F)C2)CC1 [Example 274, 6-(1-Aminocyclopropyl)-N-[2-(2,6-difluorophenyl)-[1,3]thiazolo[5,4-c]pyridin-6-yl]-5-(3,3-difluoropyrrolidin-1-yl)pyridin-2-amine]	< 100 nM	> 5000 nM	–	–	–
Cc1cc(Nc2cc3nc(-c4cncc(-c5ncccc5C)c4)sc3cn2)nc(N2C[C@@H]3C[C@H]2CN3CCO)n1 [Example 318, 2-[(1S,4S)-5-{6-methyl-4-[2-(3-methyl-2,3′-bipyridyl-5′-yl)-3-thia-1,5-diaza-6-indenylamino]-2-pyrimidinyl}-2,5-diazabicyclo[2.2.1]hept-2-yl]ethanol]	–	–	< 100 nM	< 100 nM	–
Cc1cc(Nc2cc3nc(-c4cccc(N5CC(F)C5)c4)sc3cn2)nc(N2C[C@@H]3C[C@H]2CN3C)n1 [Example 479]	–	–	< 100 nM	100 to 1000 nM	–
Cc1cccnc1-c1nc2cc(Nc3ccc(C)c(N4C[C@@H]5CCN(C)[C@@H]5C4)n3)ncc2s1 [Example 112, 6-[(3aS,6aS)-1-Methyl-octahydropyrrolo[3,4-b]pyrrol-5-yl]-5-methyl-N-[2-(3-methylpyridin-2-yl)-[1,3]thiazolo[5,4-c]pyridin-6-yl]pyridin-2-amine]	< 100 nM	> 5000 nM	–	–	–
OCCN1C[C@@H]2C[C@H]1CN2c1nc(Nc2cc3nc(-c4cnn(CC5CC5)c4)sc3cn2)ccc1F [Example 424]	–	–	< 100 nM	100 to 1000 nM	–
Cc1cc(-c2nc3cc(Nc4cc(C)nc(N5C[C@@H]6C[C@H]5CN6CCO)n4)ncc3s2)cc(N2CCCC2=O)c1 [Example 345]	–	–	< 100 nM	< 100 nM	–
Cc1cc(Nc2cc3nc(-c4cnn5c4CNCC5)sc3cn2)nc(N2C[C@@H]3C[C@H]2CN3C)n1 [Example 575]	–	–	< 100 nM	100 to 1000 nM	–
Cc1cccnc1-c1nc2cc(Nc3ccc4c(n3)CN(C)CC4)ncc2s1 [Example 327]	–	–	–	100 to 1000 nM	< 100 nM
Cc1cc(Nc2cc3nc(-c4c(C)ccc(C(C)(C)O)c4C)sc3cn2)nc(N2C[C@@H]3C[C@H]2CN3C)n1 [Example 467]	–	–	< 100 nM	< 100 nM	–
CCN1C[C@@H]2C[C@H]1CN2c1nc(C)cc(Nc2cc3nc(-c4ccnc(N5CCOC[C@H]5C(C)C)c4)sc3cn2)n1 [Example 474]	–	–	< 100 nM	< 100 nM	–
Cc1ccnn1-c1nc2cc(Nc3ccc(C4CCOCC4)c(CN[C@H]4CCOC4)n3)ncc2s1 [Example 209, N-[2-(5-Methyl-1H-pyrazol-1-yl)-[1,3]thiazolo[5,4-c]pyridin-6-yl]-5-(oxan-4-yl)-6-({[(3S)-oxolan-3-yl]amino}methyl)pyridin-2-amine]	< 100 nM	1000 to 5000 nM	–	–	–
Cc1cc(Nc2cc3nc(-c4cccc(C(=O)N(C)C)c4)sc3cn2)nc(N2C[C@@H]3C[C@H]2CN3CC2CC2)n1 [Example 382]	–	–	< 100 nM	100 to 1000 nM	–
CCN1C[C@@H]2C[C@H]1CN2c1nc(C)cc(Nc2cc3nc(-c4cccc(C(=O)N5CCCOCC5)c4)sc3cn2)n1 [Example 531]	–	–	< 100 nM	100 to 1000 nM	–
Cc1ccnn1-c1nc2cc(Nc3ccc(C4CCOC4)c(CN4CCCC4)n3)ncc2s1 (stereo not drawn) [Example 256, N-[2-(5-Methyl-1H-pyrazol-1-yl)-[1,3]thiazolo[5,4-c]pyridin-6-yl]-5-(oxolan-3-yl)-6-[(pyrrolidin-1-yl)methyl]pyridin-2-amine]	< 100 nM	< 100 nM	–	–	–
Cc1cc(-c2nc3cc(Nc4ccc(C5CCOC5)c(CN5CCCC5)n4)ncc3s2)ccn1 (stereo not drawn) [Example 253, N-[2-(2-Methylpyridin-4-yl)-[1,3]thiazolo[5,4-c]pyridin-6-yl]-5-(oxolan-3-yl)-6-[(pyrrolidin-1-yl)methyl]pyridin-2-amine]	< 100 nM	100 to 1000 nM	–	–	–
CCN1C[C@@H]2C[C@H]1CN2c1nc(C)cc(Nc2cc3nc(-c4cccc(C(=O)N5CCCC5(C)C)c4)sc3cn2)n1 [Example 520]	–	–	< 100 nM	< 100 nM	–
c1cnn(-c2nc3cc(Nc4ccnc(N5C[C@@H]6C[C@H]5CN6)n4)ncc3s2)c1 [Example 431]	–	–	< 100 nM	100 to 1000 nM	< 100 nM
Cc1cc(Nc2cc3nc(-c4cc(C#N)cc(C(=O)N(C)C)c4)sc3cn2)nc(N2C[C@@H]3C[C@H]2CN3CCO)n1 [Example 554]	–	–	< 100 nM	100 to 1000 nM	–
